Data: patent EP0906127B1, “NOVEL DEVICES FOR TRANSDERMAL ADMINISTERING OF TRIMEGESTONE” (priority 1996, dated 1997)

How the values were obtained:
[1] = In vivo studies of the hormonal activity profile
[2] = biological target: T1, récepteurs hormonaux humains recombinant androgène (hAN) (Homo sapiens, UniProt P10275); assay: Relative binding affinity for recombinant hormone receptors (SF9 insect cell-baculovirus overexpression)
T1 construct: made in house; host or cells: SF9 insect cells / baculovirus
Source text: (§1) Cette affinité a été étudiée sur les récepteurs hormonaux humains recombinant de la progestérone (hPR), androgène (hAN), glucocorticoide (hGR) et estrogène (hER).

[3] = biological target: T2, récepteurs hormonaux humains recombinant glucocorticoide (hGR) (Homo sapiens, UniProt P04150); assay: as above
T2 construct: made in house; host or cells: SF9 insect cells / baculovirus
T2 sequence (P04150 1-777): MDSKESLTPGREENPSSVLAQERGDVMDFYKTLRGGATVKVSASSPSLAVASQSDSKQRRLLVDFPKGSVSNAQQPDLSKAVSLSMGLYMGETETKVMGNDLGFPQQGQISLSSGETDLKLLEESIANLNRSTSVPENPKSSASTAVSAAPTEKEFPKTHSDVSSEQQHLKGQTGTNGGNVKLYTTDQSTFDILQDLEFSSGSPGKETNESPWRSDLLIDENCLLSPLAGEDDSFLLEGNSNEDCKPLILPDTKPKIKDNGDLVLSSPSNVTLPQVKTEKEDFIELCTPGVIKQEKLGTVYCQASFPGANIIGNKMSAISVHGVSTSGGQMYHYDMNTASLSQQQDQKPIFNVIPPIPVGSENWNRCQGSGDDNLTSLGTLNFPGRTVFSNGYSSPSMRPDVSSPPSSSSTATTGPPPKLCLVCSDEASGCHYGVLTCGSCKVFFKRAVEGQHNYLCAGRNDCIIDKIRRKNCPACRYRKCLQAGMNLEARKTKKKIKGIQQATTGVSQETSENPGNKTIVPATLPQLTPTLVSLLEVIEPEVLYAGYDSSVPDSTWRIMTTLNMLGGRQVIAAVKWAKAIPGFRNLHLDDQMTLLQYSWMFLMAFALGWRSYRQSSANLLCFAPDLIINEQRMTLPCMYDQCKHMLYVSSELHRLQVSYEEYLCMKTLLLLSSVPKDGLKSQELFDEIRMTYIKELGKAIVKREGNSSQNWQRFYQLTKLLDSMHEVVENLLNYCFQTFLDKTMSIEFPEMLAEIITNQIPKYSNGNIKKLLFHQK
Source text: Cette affinité a été étudiée sur les récepteurs hormonaux humains recombinant de la progestérone (hPR), androgène (hAN), glucocorticoide (hGR) et estrogène (hER). Ces récepteurs sont obtenus par surexpression dans un système cellules d'insectes-bacullovirus SF9 selon les méthodes décrites notamment dans la demande de brevet Européenne 0 629 635. Les affinité relatives de liaison (ARL) sont les suivantes : […]

[4] = biological target: T3, récepteurs hormonaux humains recombinant de la progestérone (hPR) (Homo sapiens, UniProt P06401); assay: as above
T3 construct: made in house; host or cells: SF9 insect cells / baculovirus
T3 sequence (P06401 1-933): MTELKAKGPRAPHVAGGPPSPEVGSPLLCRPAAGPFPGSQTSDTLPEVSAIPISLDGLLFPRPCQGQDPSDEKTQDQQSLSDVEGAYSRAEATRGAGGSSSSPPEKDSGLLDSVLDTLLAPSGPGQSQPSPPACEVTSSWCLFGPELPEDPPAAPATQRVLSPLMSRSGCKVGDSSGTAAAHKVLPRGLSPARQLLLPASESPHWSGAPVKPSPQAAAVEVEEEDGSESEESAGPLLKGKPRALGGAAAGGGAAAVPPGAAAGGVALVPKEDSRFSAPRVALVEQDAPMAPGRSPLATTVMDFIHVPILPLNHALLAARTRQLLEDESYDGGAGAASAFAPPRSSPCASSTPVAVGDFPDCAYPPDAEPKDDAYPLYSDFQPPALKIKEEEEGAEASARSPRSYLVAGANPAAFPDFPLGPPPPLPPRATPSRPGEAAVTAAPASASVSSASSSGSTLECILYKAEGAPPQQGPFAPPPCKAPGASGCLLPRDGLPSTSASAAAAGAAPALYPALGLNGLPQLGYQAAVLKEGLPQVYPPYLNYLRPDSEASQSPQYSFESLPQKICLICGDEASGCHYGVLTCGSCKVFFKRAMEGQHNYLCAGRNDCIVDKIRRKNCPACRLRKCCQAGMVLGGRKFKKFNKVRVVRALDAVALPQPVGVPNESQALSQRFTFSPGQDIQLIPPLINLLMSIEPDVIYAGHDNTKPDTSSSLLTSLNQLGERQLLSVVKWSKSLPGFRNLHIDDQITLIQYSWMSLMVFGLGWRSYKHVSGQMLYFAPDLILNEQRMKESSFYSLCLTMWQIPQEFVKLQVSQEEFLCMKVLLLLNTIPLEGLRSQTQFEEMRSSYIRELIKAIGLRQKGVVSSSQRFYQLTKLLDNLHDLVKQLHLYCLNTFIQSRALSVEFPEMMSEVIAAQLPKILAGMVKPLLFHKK
Source text: as §1

[5] = biological target: T4, récepteurs hormonaux humains recombinant estrogène (hER) (Homo sapiens, UniProt P03372); assay: as above
T4 construct: made in house; host or cells: SF9 insect cells / baculovirus
T4 sequence (P03372 1-595): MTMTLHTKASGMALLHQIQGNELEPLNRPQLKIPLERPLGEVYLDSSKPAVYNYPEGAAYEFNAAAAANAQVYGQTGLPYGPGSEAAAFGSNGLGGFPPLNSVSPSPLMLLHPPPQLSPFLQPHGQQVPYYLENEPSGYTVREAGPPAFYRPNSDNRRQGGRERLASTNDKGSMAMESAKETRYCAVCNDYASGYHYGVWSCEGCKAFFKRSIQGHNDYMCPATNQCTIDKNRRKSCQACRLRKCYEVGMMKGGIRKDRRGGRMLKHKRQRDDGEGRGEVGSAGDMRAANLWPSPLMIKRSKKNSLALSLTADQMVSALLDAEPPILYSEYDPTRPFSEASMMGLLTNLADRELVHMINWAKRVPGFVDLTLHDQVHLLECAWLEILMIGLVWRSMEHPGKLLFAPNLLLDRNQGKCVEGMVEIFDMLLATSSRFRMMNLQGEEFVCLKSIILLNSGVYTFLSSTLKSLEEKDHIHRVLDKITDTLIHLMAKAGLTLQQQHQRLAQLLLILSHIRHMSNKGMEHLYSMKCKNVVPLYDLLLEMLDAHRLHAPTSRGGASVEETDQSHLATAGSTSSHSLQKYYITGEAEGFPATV
Source text: as §1

T1 sequence (P10275 whole entry): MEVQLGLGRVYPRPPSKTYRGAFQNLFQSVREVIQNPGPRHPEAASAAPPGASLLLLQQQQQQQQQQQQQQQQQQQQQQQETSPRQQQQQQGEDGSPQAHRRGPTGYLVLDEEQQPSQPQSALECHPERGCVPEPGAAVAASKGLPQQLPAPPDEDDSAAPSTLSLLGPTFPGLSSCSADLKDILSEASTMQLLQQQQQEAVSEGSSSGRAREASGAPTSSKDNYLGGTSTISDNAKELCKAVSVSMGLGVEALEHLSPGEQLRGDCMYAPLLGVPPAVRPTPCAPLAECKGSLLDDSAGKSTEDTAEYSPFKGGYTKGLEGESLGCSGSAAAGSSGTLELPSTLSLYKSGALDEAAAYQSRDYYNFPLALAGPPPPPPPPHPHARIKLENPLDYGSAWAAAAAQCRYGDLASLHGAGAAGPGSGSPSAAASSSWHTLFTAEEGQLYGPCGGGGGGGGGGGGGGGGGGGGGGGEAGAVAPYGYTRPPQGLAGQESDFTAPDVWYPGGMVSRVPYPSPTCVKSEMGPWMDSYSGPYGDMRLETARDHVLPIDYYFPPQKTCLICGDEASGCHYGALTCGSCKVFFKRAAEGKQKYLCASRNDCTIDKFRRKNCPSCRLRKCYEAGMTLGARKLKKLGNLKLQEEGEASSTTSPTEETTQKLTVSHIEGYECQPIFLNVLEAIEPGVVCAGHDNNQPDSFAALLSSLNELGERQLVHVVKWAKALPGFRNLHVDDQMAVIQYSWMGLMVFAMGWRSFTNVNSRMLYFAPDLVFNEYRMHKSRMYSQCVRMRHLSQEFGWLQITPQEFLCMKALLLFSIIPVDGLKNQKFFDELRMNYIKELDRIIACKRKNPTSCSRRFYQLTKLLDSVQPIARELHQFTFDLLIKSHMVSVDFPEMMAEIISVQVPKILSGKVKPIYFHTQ

Compound | activité androgène [1] | activité antiandrogène [1] | activité antiglucocorticoïde [1] | activité antiminéralocorticoïde [1] | activité estrogène [1] | activité glucocorticoïde [1] | activité minéralocorticoïde [1] | activité progestomimétique [1] | affinité vis-à-vis du récepteur androgène ([2]; in words) | ARL hGR [3] | ARL hPR [4] | ARL hAN ([2]; relative binding affinity) | ARL hER [5]
C[C@H](O)C(=O)[C@@]1(C)CC[C@H]2[C@@H]3CCC4=CC(=O)CCC4=C3CC[C@@]21C [Trimegestone, 17alpha-méthyl-17béta-(2-hydroxy-1-oxo-propyl)-estra-4,9-dièn-3-one (21S)] | dénué | présente | dénué | présente | dénué | dénué | dénué | puissant progestomimétique | très faible affinité | – | – | – | –
medroxypropgestérone [MPA] | – | – | – | – | – | – | – | – | – | 58 | 298 | 36 | < 0,02
